Experimental data from US8921373B2, “Compounds having TRPV1 antagonistic activity and uses thereof” (Shionogi & Co., Ltd., priority 2010, dated 2014).

Legend:
[1] = Measurement of body temperature increase (rectal body temperature); format: in vivo, rat; conditions: Crl/SD rats, oral, 1 mg/mL at 10 mL/kg
Description: Test Animals: Selection of rats (Crl/SD rats, 7 weeks, male) for this study was based on rectal body temperature measured during the morning of the day of dosing. In addition, animals selected for this study were acclimated to both the rectal measurement procedure and to being handled and dosed to minimize spontaneous, stress-induced, increases in body temperature. The study was conducted in the animal care laboratories where the room temperature and humidity were kept. The rats were free to move and food and water during the study. Each rat was numbered with color line on the tail, housed in each cage and permitted the normal range of movement. Immediately before each body temperature was measured, they transferred to a single cage at each measurement. To reduce stress which affected the body temperature, the rats were covered with towels at the measurement. The thermistor probe was then carefully inserted into the rectum of each rat and left in place until the value on the digital display had stabilized.
Assays: On the day before dosing, rectal body temperatures were measured at 9:00, 10:00, 11:00, 12:30, 13:30, 14:30 and 15:30 to familiarize the animals with the measurement procedure prior to administration of the test or control treatments. The rats were also dosed by oral gavage without vehicle at 12:30 to acclimate and familiarized the animals with the handling and dosing procedure.
On the day of dosing, only rats whose rectal body temperatures were within the range of 37.0° C. to 37.7° C. were selected for this study. Rectal body temperatures were measured at 9:00, 10:00 and 11:00. Rats whose rectal body temperatures were over 37.9° C. at 10:00, and were outside the range of 37.0° C. to 37.7° C. at 11:00 were excluded from the study. The selected rats were divided to several groups based on their rectal body temperatures at 11:00. Rectal body temperatures of the selected rats were measured again at 12:30, and any rats whose rectal body temperature was 38.0° C. or greater were excluded from the study.
Following the group assignment, test compounds or vehicle was administrated to the rats. Each test compound was dissolved in 0.5% methylcellurose and the final concentration of the compound was adjusted to 1 mg/mL. Test compound was orally administrated in a volume 10 mL/kg once. 10 mL/kg of vehicle (0.5% methylcellurose) was administered to the vehicle group. The rectal body temperatures were measured 0.5, 1 and 2 hrs after the administration. The study was conducted in the animal care laboratories where the room temperature and humidity were kept.
Body temperature increase (ΔTb) was calculated from the difference from an average of the vehicle group at each time point.

human recombinant TRPV1 [2] = biological target: T1, human recombinant TRPV1 (Homo sapiens (Human), UniProt Q8NER1); test: TRPV1 pH-Based Assay (Protocol 2, Ca2+ response in TRPV1/CHO cells, Fura-2); format: cell-based
Description: (§1) For Protocol 2, a Chinese Hamster Ovary cell line (CHO) that has been engineered to constitutively express human recombinant TRPV1 was used (TRPV1/CHO cells). The TRPV1/CHO cell line was generated as described below.
TRPV1/CHO cells were seeded in the 96-well clear-bottom black-wall plate (Nunc) at densities of 1-2×10^4 cells/well and grown in 100 μL of culture medium (alpha-MEM supplemented with 10% FBS, 20 mM HEPES, 1 mg/mL geneticin and 1% antibiotic-antimycotic mixed stock solution) for 1-2 days before the experiment.
(2) The 96-well plate was incubated at 37° C. for 45 min.
(3) The loading buffer was removed from each well. […] The wells were then refilled with 80 μL of measuring buffer.
(4) After an incubation at 4° C. for 15 min, the 96-well plate was transferred to FDSS-3000 (Hamamatsu Photonics, Japan).
(5) The Fura-2 fluorescent intensity was monitored at a wavelength of 340 nm and at 380 nm, respectively, at a rate of 0.5 Hz for a total of 240 seconds. After 16 time points (32 sec) of baseline detection, 20 μL of agonist solution was added to each well. The final volume was 100 μL/well.
(6) Fluorescence intensity ratio refers to the fluorescence intensity at 340 nm over the fluorescence intensity at 380 nm at a particular time point. The baseline was set as the average of the fluorescent intensity ratios for the first 16 time points before the addition of agonist solution. The maximum response was the highest fluorescent intensity ratio during the 60 time points following addition of agonist solution.
(7) Maximal signal ratios from each well were calculated as output data using the FDSS-3000 analysis program. Data were analyzed using Excel (Microsoft) and XLfit (idbs) software.
Two different agonist solutions with different H2SO4 concentrations were used for the pH assay (FIG. 3A). For one half of a 96-well plate one agonist solution was used, for the other half the other agonist solution. The agonist solutions were obtained by diluting sulfuric acid (H2SO4, 1M) with measuring buffer. The concentrations for the two agonist solutions were determined as described above in Section 2 of Protocol 2.
The sulfuric acid concentrations between the two agonist solutions differed by 0.5 mM. […] After 1:4 dilution of the agonist solutions, the final sulfuric acid concentration was 3.2 mM and 3.3 mM, respectively. The resulting pH value for the pH assay was 5.0 to 5.1.
Test compounds were dissolved in DMSO to yield 1 mM stock solutions. […] The thereby-obtained solutions were further diluted in measuring buffer (1:100) as 10× stock serial dilutions with a DMSO concentration of 1%. 10 μL of a 10× stock was added into each well at step 3.3.(4) of Protocol 2.
Steps (1) and (2) of this Assay were the same as steps 2.2.(1) and 2.2.(2) of Protocol 2, respectively.
(3) The cells were washed twice with 150 μL of measuring buffer (mentioned in 2.2.(3) of Protocol 2, no probenecid). The wells were subsequently refilled with 70 μL of measuring buffer.
(4) Either 10 μl of measuring buffer or 10 μL of 10× stock serial dilution of test compound (described in 3.2. above) were applied to each well. Usually, only one test compound was tested per 96-well plate. The number of replicates per 96-well plate for a particular antagonist at a particular concentration was 7×2 since two different sulfuric acid concentrations were used per 96-well plate (N=7×2) (FIG. 3).
Step (5) was the same as 2.2.(4) above.
(6) Fura-2 fluorescent intensity was monitored as described in 2.2.(5) above. After 16 time points of baseline detection, 20 μL of agonist solution (measuring buffer titrated with H2SO4 to yield pH 5.0-5.1 when mixed 1:4 with the measuring buffer containing test compound) was added to each well (final volume 100 μL/well).
Steps (7) and (8) were as described in 2.2.(6) and 2.2.(7) above, respectively.
(1) The pH values of the buffer in the wells of A1→H1 and A7→H7 (longitudinally; FIG. 3) were measured one by one using a portable pH meter.

human recombinant TRPV1 [3] = biological target: T1, human recombinant TRPV1; test: TRPV1 Capsaicin-Based Assay (Protocol 2, TRPV1/CHO cells, Fluo-4, FLIPR); format: cell-based
Description: as §1
One day prior to assay, TRPV1/CHO cells were seeded in 96-well clear-bottom black plates (20,000 cells/well) in growth media. On the day of the experiment, the cells were washed with 0.2 mL 1× Hank's Balanced Salt Solution (Life Technologies) containing 1.6 mM CaCl2 and 20 mM HEPES, pH 7.4 (“wash buffer”). Subsequently, the cells were loaded by incubation in 0.1 mL of wash buffer containing Fluo-4 at 3 μM final concentration. After 1 hour, the cells were washed twice with 0.2 mL wash buffer and resuspended in 0.1 mL wash buffer. The plates were then transferred to a Fluorescence Imaging Plate Reader (Molecular Devices). Fluorescence intensity was monitored for 15 seconds to establish a baseline. Subsequently, test compounds diluted in assay buffer (1× Hank's Balanced Salt Solution containing 1 mM CaCl2 and 20 mM HEPES, pH 7.4) containing 1% DMSO were added to the cell plate and fluorescence was monitored for 2 minutes. […] Human TRPV1 was then activated by the addition of 50 μL capsaicin (100 nM final concentration) and plates incubated for an additional 3 min. Data were collected over the entire time course and analyzed using Excel and the curve-fitting formula GraphPad Prism.

[4] = TRPV1/CHO cells, pH 5.0-5.1, read-out: IC50 value by the pH-Based Assay
[5] = TRPV1/CHO cells, capsaicin 100 nM final, read-out: IC50 value by the Capsaicin-Based Assay

T1 sequence (Q8NER1 whole entry): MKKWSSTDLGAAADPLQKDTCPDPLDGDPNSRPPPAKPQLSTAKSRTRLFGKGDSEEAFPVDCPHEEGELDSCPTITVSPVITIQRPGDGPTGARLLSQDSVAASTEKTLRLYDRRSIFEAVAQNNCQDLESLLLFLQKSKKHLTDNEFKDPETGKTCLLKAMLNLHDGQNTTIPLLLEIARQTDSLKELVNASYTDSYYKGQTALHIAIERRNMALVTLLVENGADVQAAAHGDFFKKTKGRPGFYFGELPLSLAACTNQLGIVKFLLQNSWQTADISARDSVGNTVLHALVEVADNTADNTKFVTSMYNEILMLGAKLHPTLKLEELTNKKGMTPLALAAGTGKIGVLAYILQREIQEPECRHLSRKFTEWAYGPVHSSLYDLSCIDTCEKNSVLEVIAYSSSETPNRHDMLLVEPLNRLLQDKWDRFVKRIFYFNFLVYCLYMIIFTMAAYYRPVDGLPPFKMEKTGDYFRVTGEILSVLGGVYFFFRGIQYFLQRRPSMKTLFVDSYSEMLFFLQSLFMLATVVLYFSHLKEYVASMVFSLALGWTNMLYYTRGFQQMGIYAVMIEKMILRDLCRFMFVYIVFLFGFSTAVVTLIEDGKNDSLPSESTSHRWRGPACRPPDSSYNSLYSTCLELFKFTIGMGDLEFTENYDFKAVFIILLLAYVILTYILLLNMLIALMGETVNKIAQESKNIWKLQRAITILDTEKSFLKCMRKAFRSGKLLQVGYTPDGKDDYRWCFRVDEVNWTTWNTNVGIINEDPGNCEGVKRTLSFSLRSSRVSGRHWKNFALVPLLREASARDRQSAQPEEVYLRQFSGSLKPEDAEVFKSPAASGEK

Row | Structure (SMILES) | Body temperature increase [1] | IC50 (human recombinant TRPV1 [2]; [4]) | IC50 (human recombinant TRPV1 [3]; [5]) | IC50 (human recombinant TRPV1 [3]) | IC50 (human recombinant TRPV1 [2])
1 | O=C(Nc1ccc(C(F)(F)F)c(Cl)c1)N1CC=C(c2ncc(C[C@H](O)CO)cc2Cl)CC1 [AAF, (S)-N-(3-Chloro-4-(trifluoromethyl)phenyl)-4-(3-chloro-5-(2,3-dihydroxypropyl)pyridin-2-yl)-5,6-dihydropyridine-1(2H)-carboxamide] | less than 0.5 °C | ≤ 50 nM |  |  | 
2 | O=C(Nc1ccc(C(F)(F)F)c(Cl)c1)N1CC=C(c2ncc(C[C@@H](O)CO)cc2Cl)CC1 [AAK, (R)-N-(3-Chloro-4-(trifluoromethyl)phenyl)-4-(3-chloro-5-(2,3-dihydroxypropyl)pyridin-2-yl)-5,6-dihydropyridine-1(2H)-carboxamide] | less than 0.5 °C | ≤ 50 nM |  |  | 
3 | Cc1cc(NC(=O)N2CC=C(c3ncc(C[C@@H](O)CO)cc3F)CC2)ccc1OC(F)(F)F [ACB, (R)-5-(2,3-dihydroxypropyl)-3-fluoro-N-(3-methyl-4-(trifluoromethoxy)phenyl)-5′,6-dihydro-[2,4′-bipyridine]-1′(2′H)-carboxamide] | less than 0.5 °C |  |  |  | 
4 | Cc1cc(NC(=O)N2CC=C(c3ncc(C[C@@H](O)CO)cc3C)CC2)ccc1C(F)(F)F [ACD, (R)-4-(5-(2,3-dihydroxypropyl)-3-methylpyridin-2-yl)-N-(3-methyl-4-(trifluoromethyl)phenyl)-5,6-dihydropyridine-1(2H)-carboxamide] | less than 0.5 °C |  |  |  | 
5 | Cc1cc(NC(=O)N2CC=C(c3ncc(C[C@H](O)CO)cc3C)CC2)ccc1OC(F)(F)F [ACK, (S)-4-(5-(2,3-dihydroxypropyl)-3-methylpyridin-2-yl)-N-(3-methyl-4-(trifluoromethoxy)phenyl)-5,6-dihydropyridine-1(2H)-carboxamide] | less than 0.5 °C |  |  |  | 
6 | Cc1cc(NC(=O)N2CC=C(c3ncc(C[C@H](O)CO)cc3C)CC2)ccc1C(F)(F)F [ACL, (S)-4-(5-(2,3-dihydroxypropyl)-3-methylpyridin-2-yl)-N-(3-methyl-4-(trifluoromethyl)phenyl)-5,6-dihydropyridine-1(2H)-carboxamide] | less than 0.5 °C |  |  |  | 
7 | C[C@H]1CN(c2ncc(C[C@@H](O)CO)cc2Cl)CCN1C(=O)Nc1nc2ccc(Cl)cc2s1 [AEE] |  | ≤ 50 nM | ≤ 50 nM |  | 
8 | O=C(Nc1nc2ccc(F)cc2s1)N1CCC(F)(c2ncc(C[C@@H](O)CO)cc2Cl)CC1 [AEF, (R)-4-(3-chloro-5-(2,3-dihydroxypropyl)pyridin-2-yl)-4-fluoro-N-(6-fluorobenzo[d]thiazol-2-yl)piperidine-1-carboxamide] | less than 0.5 °C |  |  |  | 
9 | Cc1cc2nc(NC(=O)N3CCN(c4ncc(C[C@@H](O)CO)cc4Cl)CC3)sc2cc1C [AEH] |  | ≤ 50 nM | ≤ 50 nM |  | 
10 | C[C@H]1CN(c2ncc(C[C@@H](O)CO)cc2F)CCN1C(=O)Nc1nc2ccc(Cl)cc2s1 [AEK] |  | ≤ 50 nM | ≤ 50 nM |  | 
11 | C[C@H]1CN(c2ncc(C[C@H](O)CO)cc2F)CCN1C(=O)Nc1nc2ccc(Cl)cc2s1 [AEN] |  | ≤ 50 nM | ≤ 50 nM |  | 
12 | Cc1ccc2nc(NC(=O)N3CCN(c4ncc(C[C@H](O)CO)cc4F)C[C@@H]3C)sc2c1 [AEP] |  | ≤ 50 nM | ≤ 50 nM |  | 
13 | C[C@H]1CN(c2ncc(C[C@@H](O)CO)cc2F)CCN1C(=O)Nc1nc2cc(F)c(F)cc2s1 [AEY] |  | ≤ 50 nM | ≤ 50 nM |  | 
14 | O=C(Nc1nc2cc(F)c(F)cc2s1)N1CCN(c2ncc(C[C@H](O)CO)cc2F)CC1 [AFB] |  |  |  | ≤ 50 nM | ≤ 50 nM
15 | C[C@H]1CN(C(=O)Nc2nc3ccc(Cl)cc3s2)CCN1c1ncc(C[C@@H](O)CO)cc1F [AFR] |  | ≤ 50 nM | ≤ 50 nM |  | 
16 | C[C@H]1CN(C(=O)Nc2nc3cc(F)c(F)cc3s2)CCN1c1ncc(C[C@@H](O)CO)cc1F [AFS] |  | ≤ 50 nM | ≤ 50 nM |  | 
17 | CC1(C)CN(c2ncc(C[C@H](O)CO)cc2F)CCN1C(=O)Nc1nc2ccc(F)cc2s1 [AFT] |  | ≤ 50 nM | ≤ 50 nM |  | 
18 | CC1(C)CN(c2ncc(C[C@@H](O)CO)cc2F)CCN1C(=O)Nc1nc2ccc(F)cc2s1 [AFZ] |  | ≤ 50 nM | ≤ 50 nM |  | 
19 | C[C@H]1CN(C(=O)Nc2nc3ccc(Cl)cc3s2)CCN1c1ncc(C[C@H](O)CO)cc1F [AGK] |  | ≤ 50 nM | ≤ 50 nM |  | 
20 | C[C@H]1CN(c2ncc(C[C@H](O)CO)cc2C(F)(F)F)CCN1C(=O)Nc1nc2ccc(F)cc2s1 [AGW] |  | ≤ 50 nM | ≤ 50 nM |  | 
21 | C[C@H]1CN(c2ncc(C[C@H](O)CO)cc2C(F)(F)F)CCN1C(=O)Nc1nc2ccccc2s1 [AGY] |  | ≤ 50 nM | ≤ 50 nM |  | 
22 | C[C@@H]1CN(c2ncc(C[C@H](O)CO)cc2F)CCN1C(=O)Nc1nc2ccc(F)cc2s1 [AGZ] |  | ≤ 50 nM | ≤ 50 nM |  | 
